Experimental data published in PubChem BioAssay AID2060620 (Molecular Pharmacology Branch, DTP, NCI, 2025).

Test system: 328373-195-R-J1-PDC complex spheroids, viability % test/control
Assay: Anticancer human tumor 328373-195-R-J1-PDC patient-derived head and neck squamous carcinoma cell line growth inhibition [CLK]
Conditions: for IC50: curve of first compound; for viability, T/C: stronger effect = lower value; active means viability on the fitted dose curve at most 10% of control; inactive means the rest
Method in brief: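 Multi-cell-type spheroids combined patient-derived tumor cells with HUVEC endothelial cells and human mesenchymal stem cells. Paired agents were dosed in half-log steps down from about clinical Cmax, or from 10 microM where Cmax was unknown.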

[1] = second compound 0.0316 µM, first compound 0.0316 µM
[2] = second compound 0.0316 µM, first compound 0.1 µM
[3] = second compound 0.0316 µM, first compound 0.316 µM
[4] = second compound 0.0316 µM, first compound 1 µM
[5] = second compound 0.0316 µM, first compound 3.16 µM
[6] = second compound 0.0316 µM, first compound 10 µM
[7] = second compound 0.1 µM, first compound 0.0316 µM
[8] = second compound 0.1 µM, first compound 0.1 µM
[9] = second compound 0.1 µM, first compound 0.316 µM
[10] = second compound 0.1 µM, first compound 1 µM
[11] = second compound 0.1 µM, first compound 3.16 µM
[12] = second compound 0.1 µM, first compound 10 µM
[13] = second compound 0.316 µM, first compound 0.0316 µM
[14] = second compound 0.316 µM, first compound 0.1 µM
[15] = second compound 0.316 µM, first compound 0.316 µM
[16] = second compound 0.316 µM, first compound 1 µM
[17] = second compound 0.316 µM, first compound 3.16 µM
[18] = second compound 0.316 µM, first compound 10 µM
[19] = second compound 1 µM, first compound 0.0316 µM
[20] = second compound 1 µM, first compound 0.1 µM
[21] = second compound 1 µM, first compound 0.316 µM
[22] = second compound 1 µM, first compound 1 µM
[23] = second compound 1 µM, first compound 3.16 µM
[24] = second compound 1 µM, first compound 10 µM
[25] = second compound 3.16 µM, first compound 0.0316 µM
[26] = second compound 3.16 µM, first compound 0.1 µM
[27] = second compound 3.16 µM, first compound 0.316 µM
[28] = second compound 3.16 µM, first compound 1 µM
[29] = second compound 3.16 µM, first compound 3.16 µM
[30] = second compound 3.16 µM, first compound 10 µM
[31] = second compound 10 µM, first compound 0.0316 µM
[32] = second compound 10 µM, first compound 0.1 µM
[33] = second compound 10 µM, first compound 0.316 µM
[34] = second compound 10 µM, first compound 1 µM
[35] = second compound 10 µM, first compound 3.16 µM
[36] = second compound 10 µM, first compound 10 µM
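Further: spheroids exposed to the agents for 7 days.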

CC(C)CC(NC(=O)C(Cc1ccccc1)NC(=O)c1cnccn1)B(O)O (stereo unspecified) + CN1CCN(c2cc(C(=O)Nc3cc4cc(-c5cnn(C)c5)ccc4cn3)ccn2)CC1
< 0.949 nM: IC50 (second compound 0.316 µM) | IC50 (second compound 1 µM) | IC50 (second compound 3.16 µM) | IC50 (second compound 10 µM)
1.5 nM: IC50 (second compound 0.1 µM)
1.76 nM: IC50 (second compound 0.0316 µM)
active: viability, T/C (second compound 0.0316 µM, first compound 0.003 µM) 8.37% | viability, T/C (second compound 0.0316 µM, first compound 0.00949 µM) 1.89% | viability, T/C (second compound 0.0316 µM, first compound 0.03 µM) 0.2% | viability, T/C (second compound 0.0316 µM, first compound 0.0949 µM) 0.17% | viability, T/C (second compound 0.0316 µM, first compound 0.3 µM) 2.7% | viability, T/C (second compound 0.1 µM, first compound 0.003 µM) 6.61% | viability, T/C (second compound 0.1 µM, first compound 0.00949 µM) 2.17% | viability, T/C (second compound 0.1 µM, first compound 0.03 µM) 0.2% | viability, T/C (second compound 0.1 µM, first compound 0.0949 µM) 1.87% | viability, T/C (second compound 0.1 µM, first compound 0.3 µM) 2.34% | viability, T/C (second compound 0.316 µM, first compound 0.003 µM) 1.25% | viability, T/C (second compound 0.316 µM, first compound 0.00949 µM) 0.78% | viability, T/C (second compound 0.316 µM, first compound 0.03 µM) 0.49% | viability, T/C (second compound 0.316 µM, first compound 0.0949 µM) 1.14% | viability, T/C (second compound 0.316 µM, first compound 0.3 µM) 4.1% | viability, T/C (second compound 1 µM, first compound 0.000949 µM) 0.13% | viability, T/C (second compound 1 µM, first compound 0.003 µM) 3.65% | viability, T/C (second compound 1 µM, first compound 0.00949 µM) 0.97% | viability, T/C (second compound 1 µM, first compound 0.03 µM) 0.1% | viability, T/C (second compound 1 µM, first compound 0.0949 µM) 0.09% | viability, T/C (second compound 1 µM, first compound 0.3 µM) 2.54% | viability, T/C (second compound 3.16 µM, first compound 0.000949 µM) 0.08% | viability, T/C (second compound 3.16 µM, first compound 0.003 µM) 4.42% | viability, T/C (second compound 3.16 µM, first compound 0.00949 µM) 1.48% | viability, T/C (second compound 3.16 µM, first compound 0.03 µM) 0.07% | viability, T/C (second compound 3.16 µM, first compound 0.0949 µM) 1.48% | viability, T/C (second compound 3.16 µM, first compound 0.3 µM) 1.92% | viability, T/C (second compound 10 µM, first compound 0.000949 µM) 2.18% | viability, T/C (second compound 10 µM, first compound 0.003 µM) 1.53% | viability, T/C (second compound 10 µM, first compound 0.00949 µM) 3.09% | viability, T/C (second compound 10 µM, first compound 0.03 µM) 0.11% | viability, T/C (second compound 10 µM, first compound 0.0949 µM) 1.22% | viability, T/C (second compound 10 µM, first compound 0.3 µM) 2.07%
inactive: viability, T/C (second compound 0.0316 µM, first compound 0.000949 µM) 98.5% | viability, T/C (second compound 0.1 µM, first compound 0.000949 µM) 78.4% | viability, T/C (second compound 0.316 µM, first compound 0.000949 µM) 26.6%

CC1COCCN1c1cc(C2(S(C)(=N)=O)CC2)nc(-c2ccnc3[nH]ccc23)n1 (stereo unspecified) + CN1CCN(c2cc(C(=O)Nc3cc4cc(-c5cnn(C)c5)ccc4cn3)ccn2)CC1
inactive: viability, T/C [1] 95.4% | viability, T/C [2] 96.6% | viability, T/C [3] 88.2% | viability, T/C [4] 69.3% | viability, T/C [5] 25.9% | viability, T/C [7] 90.9% | viability, T/C [8] 86.8% | viability, T/C [9] 81.1% | viability, T/C [10] 55.2% | viability, T/C [11] 18% | viability, T/C [13] 22.7% | viability, T/C [14] 37.2% | viability, T/C [15] 28.5% | viability, T/C [16] 14.7% | viability, T/C [17] 7.56%
< 31.6 nM: IC50 (second compound 0.316 µM) | IC50 (second compound 1 µM) | IC50 (second compound 3.16 µM) | IC50 (second compound 10 µM)
1150 nM: IC50 (second compound 0.1 µM)
1660 nM: IC50 (second compound 0.0316 µM)
active: viability, T/C [6] 8.66% | viability, T/C [12] 9.2% | viability, T/C [18] 7.95% | viability, T/C [19] 0.21% | viability, T/C [20] 0.24% | viability, T/C [21] 0.58% | viability, T/C [22] 0.22% | viability, T/C [23] 2.35% | viability, T/C [24] 2.29% | viability, T/C [25] 2.09% | viability, T/C [26] 0.12% | viability, T/C [27] 0.16% | viability, T/C [28] 0.14% | viability, T/C [29] 1.51% | viability, T/C [30] 3.51% | viability, T/C [31] 0.14% | viability, T/C [32] 1.61% | viability, T/C [33] 1.87% | viability, T/C [34] 1.76% | viability, T/C [35] 1.92% | viability, T/C [36] 2.57%

O=C(c1cc(Cc2n[nH]c(=O)c3ccccc23)ccc1F)N1CCN(C(=O)C2CC2)CC1 + CN1CCN(c2cc(C(=O)Nc3cc4cc(-c5cnn(C)c5)ccc4cn3)ccn2)CC1
inactive: viability, T/C [1] 92.9% | viability, T/C [2] 91% | viability, T/C [3] 98.9% | viability, T/C [4] 92.7% | viability, T/C [5] 90.4% | viability, T/C [6] 78.5% | viability, T/C [7] 76.8% | viability, T/C [8] 81.4% | viability, T/C [9] 86.4% | viability, T/C [10] 83.9% | viability, T/C [11] 79% | viability, T/C [12] 57.1% | viability, T/C [13] 23.5% | viability, T/C [14] 29.2% | viability, T/C [15] 23.1% | viability, T/C [16] 27.4% | viability, T/C [17] 24.4% | viability, T/C [18] 17.1%
< 31.6 nM: IC50 (second compound 0.316 µM) | IC50 (second compound 1 µM) | IC50 (second compound 3.16 µM) | IC50 (second compound 10 µM)
> 10000 nM: IC50 (second compound 0.0316 µM) | IC50 (second compound 0.1 µM)
active: viability, T/C [19] 0.23% | viability, T/C [20] 0.16% | viability, T/C [21] 1.14% | viability, T/C [22] 0.33% | viability, T/C [23] 2.95% | viability, T/C [24] 2.82% | viability, T/C [25] 2.14% | viability, T/C [26] 2.06% | viability, T/C [27] 2.2% | viability, T/C [28] 1.77% | viability, T/C [29] 3.1% | viability, T/C [30] 1.47% | viability, T/C [31] 0.09% | viability, T/C [32] 3.55% | viability, T/C [33] 1.83% | viability, T/C [34] 0.13% | viability, T/C [35] 3.63% | viability, T/C [36] 0.27%
